Consider 19 molecules from patent US20020028809A1 (SUNTORY LIMITED, priority 1999, published 2002).

Experiment [1] concerns the target T1, α1β1γδ subtype of nicotinic acetylcholine receptors (Rattus norvegicus, UniProt P18916+P25108+P25109+P25110).
T1 construct: Native receptor, no construct: "Triton X100 (2% w/v) was added
Nature of the experiment: Binding assays at α1β1γδ subtype of nicotinic acetylcholine receptors ([3H]-α-bungarotoxin, rat muscle extract). The settings on record: for remaining activity at 100 µM / remaining activity at 1000 µM: read-out: control % of [3H]-α-Bgt binding. The source says:
(§1) Methods for evaluating binding capabilities of the compounds at nicotinic acetylcholine receptors are different by subtypes of receptors. Binding capabilities of the compounds at α4β2 nicotinic acetylcholine receptors are examined using rat brain membrane obtained from whole homogenized brain, and determining the inhibiting rate of the compounds against [^3H]-cytisine binding to said brain membrane. Furthermore, the binding capabilities of the compounds at α1β1γδ nicotinic acetylcholine receptors are examined using homogenized rat muscle, and determining the inhibiting rate of the compounds against [^3H]-α-bungarotoxin binding to said muscle homogenate.
Binding Assays at α1β1γδ Subtype of Nicotinic Acetylcholine Receptors
Affinity of the compounds of the present invention to α1βγδ subtype of nicotinic acetylcholine receptors was measured by the following method, which was modified method described by Garcha H. S., Thomas P., Spivak C.
(1) Preparation of Rat Skeletal Muscles Containing α1β1γδ Subtype of Nicotinic Acetylcholine Receptors
The substantially same animals described in the Biological Experiment 1 were used.
Isolation of α1β1γδ subtype of nicotinic acetylcholine receptors was performed as follow. That is, rat posterior skeletal muscles were isolated just after sacrificed by decapitation, washed with ice-cooled saline solution and then frozen at −80° C. with liquid nitrogen and stored till using. After thawing the frozen muscles, tissue was homogenized (40% w/v) with buffer solution [2.5 mM of sodium phosphate buffer (pH:7.2), 90 mM of NaCl, 2 mM of KCl, 1 mM of EDTA, 2 mM of benzamidine, 0.1 mM of benzethonium chloride, […], 0.01% of sodium azide] in Waring blender (Waring blender 34BL97; WARING PRODUCTS DIVISION DYNAMICS CORPORATION OF AMERICA) for 60 seconds. The homogenate were centrifuged under 20,000×G for 60 minutes at 4° C. The supernatant was separated and the resulting pellet was added to the same buffer (1.5 ml/g wet weight), and homogenized under the same conditions. Triton X100 (2% w/v) was added and the mixture was stirred for 3 hours at 4° C. The centrifugation at 100,000×G for 60 minutes at 4° C. yielded the rat muscle extract as supernatant. This was stored at 4° C. for up to 4 weeks, and used for binding assays at receptors.
(2) Experiments of α1β1γδSubtype of Nicotinic Acetylcholine Receptors Binding
Receptors binding experiments were performed as follow. That is, the extract of rat muscle containing 600-900 μg of protein was added to test tubes containing test compounds and incubated for 15 minutes at 37° C. Then, to this mixture was added 1 nM of [^3H]-α-bungarotoxin (α-Bgt) and further incubated for 2 hours. The samples were isolated by vacuum filtration onto Whatman GF/B filters, which were prerinsed with 0.5% polyethylenimine just prior to sample filtration, using Brandel multi manifold cell harvester. The filters were rapidly rinsed with washing solution (10 mM of KH2PO4, 150 mM of NaCl, pH 7.2, room temperature) (5×1 ml). The filters were counted in 3 ml of clearsol I (Nacalai Tesque Inc.). Determination of nonspecific binding was incubated in the presence of 1 μM α-Bgt.
In the receptor binding experiments, said buffer solution was added for adjusting the final concentration of BSA to be 0.05%.
Analyses of the experimental results were conducted by the same way as described in the Biological Experiment 1.

For experiment [2], the target named is T2, α4β2 subtype of nicotinic acetylcholine receptors (Rattus norvegicus, UniProt P09483+P12390).
T2 construct: examined using rat brain membrane obtained from whole homogenized brain; from tissue; host or cells: whole brain of Fischer-344 male rats, membrane pellet
T2 sequence (P09483 31-630): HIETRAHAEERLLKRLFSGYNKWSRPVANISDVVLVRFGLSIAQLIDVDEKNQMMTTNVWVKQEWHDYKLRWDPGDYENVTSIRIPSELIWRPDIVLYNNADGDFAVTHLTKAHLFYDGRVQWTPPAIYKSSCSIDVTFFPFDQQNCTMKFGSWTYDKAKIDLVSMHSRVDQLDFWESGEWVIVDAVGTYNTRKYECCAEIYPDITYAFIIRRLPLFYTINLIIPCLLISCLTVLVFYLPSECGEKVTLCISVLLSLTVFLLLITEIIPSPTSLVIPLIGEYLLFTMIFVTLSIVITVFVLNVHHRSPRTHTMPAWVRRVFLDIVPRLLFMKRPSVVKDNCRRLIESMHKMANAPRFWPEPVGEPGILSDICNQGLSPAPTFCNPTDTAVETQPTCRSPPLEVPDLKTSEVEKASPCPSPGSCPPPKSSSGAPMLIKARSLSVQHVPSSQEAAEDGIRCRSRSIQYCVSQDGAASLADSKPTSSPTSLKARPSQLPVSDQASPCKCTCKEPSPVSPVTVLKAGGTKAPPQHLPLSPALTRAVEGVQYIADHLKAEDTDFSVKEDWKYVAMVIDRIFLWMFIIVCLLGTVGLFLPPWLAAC
T2 sequence (P12390 25-500): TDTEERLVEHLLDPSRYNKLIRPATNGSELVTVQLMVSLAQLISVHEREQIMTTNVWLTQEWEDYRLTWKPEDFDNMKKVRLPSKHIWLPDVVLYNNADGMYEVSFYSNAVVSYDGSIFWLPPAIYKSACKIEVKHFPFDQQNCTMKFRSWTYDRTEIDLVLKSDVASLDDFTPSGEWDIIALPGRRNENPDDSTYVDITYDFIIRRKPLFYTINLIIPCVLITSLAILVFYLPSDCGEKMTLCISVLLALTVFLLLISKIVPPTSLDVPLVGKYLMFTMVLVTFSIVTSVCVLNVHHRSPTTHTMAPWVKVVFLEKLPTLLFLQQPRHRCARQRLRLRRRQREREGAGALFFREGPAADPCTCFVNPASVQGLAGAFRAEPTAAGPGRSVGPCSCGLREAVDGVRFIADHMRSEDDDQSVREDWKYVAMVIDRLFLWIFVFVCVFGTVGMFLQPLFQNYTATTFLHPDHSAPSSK
The experiment can be described thus: Binding assays at α4β2 subtype of nicotinic acetylcholine receptors ([3H]-cytisine, rat brain membrane).
Description: as §1
Binding assays at α4β2 Subtype of Nicotinic Acetylcholine Receptors
(1) Preparation of Rat Brain Membrane Containing α4β2 Subtype of Nicotinic Acetylcholine Receptors
Rats were housed in the breeding cage controlled of the room temperature at 23±1° C., and the humidity of 55±5% for 1 to 4 weeks. Rats (3 to 4 rats per a cage) were housed with lights on for 12 hours daily (from 7:00 to 19:00), and allowed free access to food and water.
Preparation of rat brain membrane containing α4β2 subtype of nicotinic acetylcholine receptors was performed as follow. That is, rat brains were isolated just after sacrificed by decapitation, washed with ice-cooled saline solution and then frozen at −80° C. with liquid nitrogen and stored till using. After thawing the frozen brain, the brain was homogenized in 10 volumes of ice-cooled buffer solution (50 mM of Tris-HCl, 120 mM of NaCl, 5 mM of KCl, 1 mM of MgCl2, 2mM of CaCl2; pH 7.4; 4° C.) using homogenizer (HG30, Hitachi Kohki Ltd.) for 30 seconds, and the homogenate were centrifuged under 1,000×G for 10 minutes at 4° C. The resulting supernatant was separated and the pellet was homogenized again with half volume of aforementioned prior buffer solution and centrifuged under the same conditions. Combined supernatant was further centrifuged under 40,000×G for 20 minutes at 4° C. The pellet was suspended in buffer solution and used for binding assays at receptors.
(2) Experiments of α4β2 Subtype of Nicotinic Acetylcholine Receptors Binding
Suspensions of membrane pellets containing 400-600 μg of protein were added to test tubes containing test compounds and [^3H]-cytisine (2 nM) in a final volume of 200 μl and incubated for 75 minutes in ice-cooled bath. The samples were isolated by vacuum filtration onto Whatman GF/B filters, which were prerinsed with 0.5% polyethylenimine just prior to sample filtration, using Brandel multi manifold cell harvester. The filters were rapidly washed with buffer solution (3×1 ml). The filters were counted in 3 ml of clearsol I (Nacalai Tesque Inc.).
Analyses of the experimental results were conducted using the Accufit Competition Program (Beckman Ltd.).

Where [3] appears, read: at 1 μM of test compound, rat brain membrane.
Setting [4] is: at 10 μM of test compound, rat brain membrane.

Usually Ki stands for the equilibrium dissociation constant of an inhibitor or competing ligand from its target.

Where two headings read alike, the source gives them in different places.

T1 sequence (P25108 21-457): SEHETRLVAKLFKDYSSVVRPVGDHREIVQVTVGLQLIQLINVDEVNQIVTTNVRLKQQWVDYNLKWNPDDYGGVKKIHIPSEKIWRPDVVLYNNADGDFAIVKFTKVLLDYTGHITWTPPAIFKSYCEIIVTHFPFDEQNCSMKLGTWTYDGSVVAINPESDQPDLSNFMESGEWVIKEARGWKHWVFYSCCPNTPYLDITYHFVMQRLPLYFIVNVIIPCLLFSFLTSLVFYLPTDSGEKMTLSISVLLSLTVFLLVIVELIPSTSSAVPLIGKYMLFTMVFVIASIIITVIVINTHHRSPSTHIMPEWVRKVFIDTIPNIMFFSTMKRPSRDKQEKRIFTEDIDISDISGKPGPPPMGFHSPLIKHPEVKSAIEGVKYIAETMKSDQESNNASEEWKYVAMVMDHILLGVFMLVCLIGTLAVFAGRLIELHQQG
T1 sequence (P25110 22-517): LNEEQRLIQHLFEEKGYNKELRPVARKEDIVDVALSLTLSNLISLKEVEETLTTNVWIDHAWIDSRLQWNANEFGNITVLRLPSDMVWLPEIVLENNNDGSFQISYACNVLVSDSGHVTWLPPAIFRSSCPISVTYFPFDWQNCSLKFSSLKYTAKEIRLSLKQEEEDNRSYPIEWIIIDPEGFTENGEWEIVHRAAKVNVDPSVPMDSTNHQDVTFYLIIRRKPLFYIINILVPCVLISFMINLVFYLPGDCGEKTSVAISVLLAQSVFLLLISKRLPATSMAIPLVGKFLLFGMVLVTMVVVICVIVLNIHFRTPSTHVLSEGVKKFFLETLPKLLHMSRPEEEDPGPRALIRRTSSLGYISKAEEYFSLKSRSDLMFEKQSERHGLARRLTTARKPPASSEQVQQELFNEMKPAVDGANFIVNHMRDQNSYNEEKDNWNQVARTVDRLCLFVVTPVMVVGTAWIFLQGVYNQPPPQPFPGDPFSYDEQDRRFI
T1 sequence (P25109 24-501): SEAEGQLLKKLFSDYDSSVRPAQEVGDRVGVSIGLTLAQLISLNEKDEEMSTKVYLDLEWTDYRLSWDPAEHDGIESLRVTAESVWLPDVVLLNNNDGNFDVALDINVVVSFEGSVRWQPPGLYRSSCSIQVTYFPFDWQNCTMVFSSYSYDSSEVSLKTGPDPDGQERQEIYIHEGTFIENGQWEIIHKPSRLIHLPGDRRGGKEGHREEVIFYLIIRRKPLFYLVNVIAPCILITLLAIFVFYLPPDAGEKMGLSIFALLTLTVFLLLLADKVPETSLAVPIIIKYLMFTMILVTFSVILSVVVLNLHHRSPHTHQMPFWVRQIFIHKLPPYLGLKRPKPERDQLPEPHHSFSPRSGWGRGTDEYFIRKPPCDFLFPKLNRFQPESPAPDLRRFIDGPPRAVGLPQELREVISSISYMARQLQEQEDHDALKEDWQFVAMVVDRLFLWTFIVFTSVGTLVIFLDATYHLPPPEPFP

`N=c1scc(-c2ccccc2)n1Cc1ccc(Cl)nc1` [Compound 41, 3-(6-chloro-3-pyridyl)methyl-2-imino-4-phenyl-2,3-dihydrothiazole]: in experiment [1], the remaining activity at 100 µM is 79% and the remaining activity at 1000 µM was 30%. The same molecule yielded a Ki in experiment [2] of 0.032 µM.
The like results for `N=c1scc(-c2ccc(Cl)cc2)n1Cc1ccc(Cl)nc1` [Compound 42, 4-(4-chlorophenyl)-3-(6-chloro-3-pyridyl)methyl-2-imino-2,3-dihydrothiazole] were, in that order, 75%, 35% and 0.29 µM.
As for `N=C1SCC(c2ccccc2)N1Cc1ccc(Cl)nc1` (centres unmarked) [Compound 43, 3-(6-chloro-3-pyridyl)methyl-2-imino-4-phenylthiazolidine], the Ki in experiment [1] is 19.9 µM; in experiment [2] it was 0.0371 µM.
As for `N=c1ccc(-c2ccccc2)nn1Cc1cccnc1` [Compound 45, 3-imino-6-phenyl-2-(3-pyridyl)methyl-2,3-dihydropyridazine], in experiment [1], the remaining activity at 100 µM came out at 18% and the remaining activity at 1000 µM is 6%. The inhibition constant Ki in experiment [2] was 0.143 µM.
The like results for `N=c1ncc(-c2ccccc2)cn1Cc1ccc(Cl)nc1` [Compound 46, 1-(6-chloro-3-pyridyl)methyl-2-imino-5-phenyl-1,2-dihydropyrimidine] were, in that order, 88%, 66% and 0.273 µM.
The like results for `N=c1ccc([N+](=O)[O-])cn1Cc1ccc(Cl)nc1` [Compound 47, 1-(6-chloro-3-pyridyl)methyl-2-imino-5-nitro-1,2-dihydropyridine] were, in that order, 93%, 73% and 0.227 µM.
Consider `Cc1ccc(Cn2ccccc2=N)cn1` [Compound 48, 2-imino-1-(6-methyl-3-pyridyl)methyl-1,2-dihydropyridine], for which the Ki in experiment [1] was found to be 56.3 µM; in experiment [2], 0.0479 µM.
As to `N=C1SCCN1Cc1cccnn1` [Compound 49, 2-imino-3-(3-pyridazinyl)methylthiazolidine], in experiment [1], the remaining activity at 100 µM was determined as 18% and the remaining activity at 1000 µM is 14%. In experiment [2] (setting [3]), the “control % of [3H]-cytisine binding” value is “(62%,”. Moreover, in experiment [2] (setting [4]), the “control % of [3H]-cytisine binding” value stood at 16%).
As to `Cc1nc(N)n(Cc2ccc(Cl)nc2)c1C` [Compound 51, 2-amino-1-(6-chloro-3-pyridyl)methyl-4,5-dimethylimidazole], in experiment [1], the remaining activity at 100 µM came out at 103% and the remaining activity at 1000 µM is 53%. Besides, the “control % of [3H]-cytisine binding” value in experiment [2] (setting [3]) is “(96%”. In addition, the “control % of [3H]-cytisine binding” value in experiment [2] (setting [4]) is recorded as 33%).
For the molecule `Nc1nccn1Cc1cncnc1` [Compound 52, 2-amino-1-(5-pyrimidyl)methylimidazole], the figures for the inhibition constant Ki in experiment [1] and in experiment [2] were 302 µM and 0.0249 µM, respectively.
In the case of `Cc1cn(Cc2ccc(Cl)nc2)c(N)n1` [Compound 53, 2-amino-1-(6-chloro-3-pyridyl)methyl-4-methylimidazole], in experiment [1], the remaining activity at 100 µM is 98% and the remaining activity at 1000 µM came out at 56%. For the same molecule, the Ki in experiment [2] was 0.226 µM.
Take `Nc1nccn1Cc1cnc(Cl)c(Cl)c1` [Compound 54, 2-amino-1-(5,6-dichloro-3-pyridyl)methylimidazole]: in experiment [1], the remaining activity at 100 µM is 113% and the remaining activity at 1000 µM was 52%. For the same molecule, the inhibition constant Ki in experiment [2] was determined as 0.00972 µM.
As for `Nc1nccn1Cc1ccc(Cl)cc1` [Compound 58, 2-amino-i-(4-chlorobenzyl)imidazole], in experiment [1], the remaining activity at 100 µM turned out to be 62% and the remaining activity at 1000 µM is 37%. In experiment [2] (setting [3]), the “control % of [3H]-cytisine binding” value is on record as “(62%,”. Moreover, the “control % of [3H]-cytisine binding” value in experiment [2] (setting [4]) is 16%).
As to `N=c1sccn1Cc1ccc(Cl)c(Cl)c1` [Compound 60, 3-(3,4-dichlorobenzyl)-2-imino-2,3-dihydrothiazole], the Ki came to 61.3 µM in experiment [1] and 0.0319 µM in experiment [2].
Consider `N=c1sccn1Cc1cccc([N+](=O)[O-])c1` [Compound 61, 2-imino-3-(3-nitrobenzyl)-2,3-dihydrothiazole], for which the inhibition constant (Ki) in experiment [1] worked out at 219 µM; in experiment [2], 0.0654 µM.
Regarding `Cc1ccc(Cn2ccsc2=N)cc1` [Compound 63, 2-imino-3-(4-methylbenzyl)-2,3-dihydrothiazole], the inhibition constant Ki came out at 364 µM in experiment [1] and 0.16 µM in experiment [2] (rat brain membrane, [3H]-cytisine (2 nM), read-out: Affinities for receptors Ki α4β2).
On to `N=c1sccn1Cc1cccc(C(F)(F)F)c1` [Compound 64, 2-imino-3-(3-trifluoromethylbenzyl)-2,3-dihydrothiazole], for which the remaining activity at 100 µM in experiment [1] came to 77%. In experiment [1], the remaining activity at 1000 µM turned out to be 23%. For the same molecule, the figures for the “control % of [3H]-cytisine binding” value in experiment [2] (setting [3]) and in experiment [2] (setting [4]) were “(60%,” and 15%), respectively.
For the molecule `N#Cc1ccc(Cn2ccsc2=N)cc1` [Compound 65, 3-(4-cyanobenzyl)-2-imino-2,3-dihydrothiazole], the Ki came to 311 µM in experiment [1] and 0.181 µM in experiment [2].
The like results for `N=c1sccn1Cc1c[nH]c2ncccc12` [Compound 66] were, in that order, 184 µM and 0.0161 µM.
